Test results: ChEMBL document CHEMBL1135996, “Synthesis and biological evaluation of novel macrocyclic ligands with pendent donor groups as potential yttrium chelators for radioimmunotherapy with improved complex formation kinetics” (J Med Chem, 2002)

What was measured:
Type in all cases: ADME, organism-based
Settings in all cases: in vivo
Mus musculus [1] = organism: Mus musculus; experiment: Percent of blood clearance in bone of mice at 0.5 h
Mus musculus [2] = organism: Mus musculus; experiment: Percent of blood clearance in bone of mice at 24 hr
Mus musculus [3] = organism: Mus musculus; experiment: Percent of radioactivity that accumulated in kidney of mice at 24 h

1,4,7,10tetraaza-Cyclododecane-1,4,7,10-tetracarboxylic acid with yttrium
ID/g (Mus musculus [1]): 1.47%
ID/g (Mus musculus [2]): 0.05%
ID/g (Mus musculus [3]): 0.54%
